The source of these data is PMC7555349, “1,4-Disubstituted-1,2,3-Triazole Compounds Induce Ultrastructural Alterations in Leishmania amazonensis Promastigote: An in Vitro Antileishmanial and in Silico Pharmacokinetic Study” (International Journal of Molecular Sciences, 2020).

Usually IC50 stands for the midpoint of a concentration-inhibition curve. In general, CC50 refers to the concentration that lowers cell viability or growth by half.

In data set [1] the test system is Leishmania amazonensis promastigote. Description: Activity against promastigote forms (MTT). It counts as cell-based. Particulars: for IC50: read-out: IC50 Promastigote. The procedure:
Leishmania amazonensis (MHOM/BR/76/MA-76) promastigote forms of were cultured at 26 °C in Schneider’s Insect medium added with 10% fetal bovine sera (FBS), 100 U/mL of penicillin and 100 µg/mL of streptomycin. Parasite cultures with a maximum of seven in vitro passages were used. […] Blanks composed by wells without parasites and wells with parasites plus DMSO 1% only were used as controls. A modified colorimetric method with tetrazolium-dye MTT was used to evaluate parasite viability. A quantity of 10 µL of MTT (5 mg/mL) was added to each well. After five hours, 150 µL of DMSO was added to each well to dissolve the formazan crystals. Absorbance was read on a spectrophotometer at a wavelength of 570 nm. The data was normalized and the results were used to calculate the IC50 (50% inhibition of parasite growth). Miltefosine was used as a reference drug.

Data set [2] is described as follows: Cytotoxicity assay (MTT). Particulars: mouse. In kind it is cell-based, BALB/c mice. As for the experimental part:
The peritoneal macrophages were obtained from BALB/c mice elicited with 3 mL Brewer thioglycollate medium for 72 h, intraperitoneal. After euthanasia, cells were obtained by peritoneal washing with PBS, centrifuged at 4000 rpm for 5 min, and suspended in RPMI 1640 medium plus 10% FBS, 100 U/mL of penicillin and 100 µg/mL of streptomycin [50]. The cells were immediately used in experiments and maintained at 37 °C and 5% CO2.
Blanks were composed by wells without cells and wells with cells plus 1% of DMSO only. Cell viability was carried out by the modified MTT colorimetric method as described before. Tem microliters of MTT at 5 mg/mL was added to each well and incubated for two hours at 37 °C and 5% CO2. The plate was then centrifuged for five minutes at 1500 rpm, the supernatants were removed and the formazan crystals solubilized with 100 μL of DMSO in a shaker-plate for 10 min. The absorbance was determined in a spectrophotometer at a wavelength of 570 nm.

For data set [3], the system named is Leishmania amazonensis intracellular amastigotes. Description: Activity against intracellular amastigote in infected peritoneal macrophages, and selectivity index. Particulars: for amastigotes per infected cell / number of amastigotes per 200 cells / parameters of infection (amastigotes per 200 cells, percentage of infected cells, amastigotes per infected cell): compared with untreated infected cells; for IC50: Leishmania amazonensis, Peritoneal macrophage, in Mus musculus, read-out: IC50 Intracellular Amastigote; for SI (selectivity index): ratio of CC50 versus the IC50 for intracellular amastigotes. In kind it is cell-based. As for the experimental part: Activity against the intracellular amastigotes was carried out in 24-well plates with coverslips with peritoneal macrophages (5 × 10^5 cells/well). Cells were infected with L. amazonensis promastigote forms using a ratio of 10:1 parasite/cell. After 6 h after infection the cells were washed three times with PBS to remove non-internalized parasites. […] The infected and treated cells adhered to the coverslips were fixed with Bouin, stained with Giemsa’s azur-eosin-methylene blue and examined by light microscopy. […] The percentage of infected cells was determined by number of infected cells divided by two. […] The selectivity index was calculated from the ratio of CC50 versus the IC50 for intracellular amastigotes.

Data set [4] has as its system Leishmania amazonensis promastigotes. Description: Transmission electron microscopy of treated promastigotes. It counts as cell-based. Particulars: 24 h of treatment at IC50. As for the experimental part: The parasites were fixed with 2.5% glutaraldehyde in a 0.1 M sodium-cacodylate buffer, pH 7.2 overnight. Then, parasites were washed three times with 0.1 M sodium-cacodylate buffer, post-fixed in a solution composed by 1% osmium tetroxide, 0.8% potassium ferrocyanide, and 5 mM calcium chloride, dehydrated in graded acetone and embedded in EPON 812.

For data set [5], the system named is BALB/c peritoneal macrophages. Kind of data set: Nitrite quantification (Griess) in supernatant of macrophages stimulated with L. amazonensis. In kind it is cell-based, BALB/c mice. Particulars: compound at 18.7 μM, 48 h. As for the experimental part:
BALB/c peritoneal macrophages at 5 × 10^6 cells/mL were stimulated with L. amazonensis promastigotes (10:1 parasites:cell) for one hour, and treated with different concentrations of triazole compounds for 48 h. Nitrite quantification of the supernatant of the cells was performed with Griess reagent. […] The nitrite concentrations were obtained from the standard curve of sodium nitrite (100 to 0.3 μM).
Background: Griess reagent forms a coloured azo dye with nitrite.

The mark [6] stands for this setting: L. amazonensis promastigotes, 24 h of treatment per table title, MTT.
Where [7] appears, read: Leishmania amazonensis, 24 h, L. amazonensis promastigotes, 24 h of treatment per table title, MTT.
[8] abbreviates: BALB/c peritoneal macrophages, 24 h of treatment, MTT, read-out: CC50.
[9] abbreviates: L. amazonensis in BALB/c peritoneal macrophages, 24 h of treatment.

Read-outs that look alike come from different tables or passages of the source. Some results are limits rather than exact numbers.

As to `O=Cc1ccccc1-n1cc(COc2ccccc2)nn1` [Compound 1], the IC50 was 53.7 ± 8.47 µM in data set [1] (setting [6]) and > 50 µM in data set [1] (setting [7]). The 50% cytotoxic concentration (CC50) at 24 h in data set [2] (setting [8]) is 221 ± 4.82 µM.
Turning to `O=Cc1ccccc1-n1cc(COc2cccc(OCc3cn(-c4ccccc4C=O)nn3)c2)nn1` [Compound 2], the IC50 in data set [1] (setting [6]) was 8.85 ± 3.44 µM; in data set [1] (setting [7]), < 10 µM; in data set [3] (setting [9]), 37.9 ± 3.35 µM. For the same molecule, the “amastigotes per infected cell” value in data set [3] (37.5 μM, 24 h) is “decreased”. Also, the “number of amastigotes per 200 cells” value in data set [3] (37.5 μM, 24 h) is listed as “decreased”. Also, the “SI (selectivity index)” value in data set [3] worked out at 6.55. The CC50 at 24 h in data set [2] (setting [8]) was found to be 248 ± 2.52 µM. Moreover, the “ultrastructural alterations in promastigotes” value (“ultrastructural alterations” for short) in data set [4] is recorded as “increase in lipid corpuscles (white arrows), electron dense vesicles inside small vacuoles in the cytoplasm”.
`O=Cc1ccccc1-n1cc(COc2cccc(O)c2)nn1` [Compound 3]: the 50% inhibitory concentration (IC50) in data set [1] (setting [6]) was 50.9 ± 4.57 µM; in data set [1] (setting [7]), > 50 µM. The CC50 at 24 h in data set [2] (setting [8]) stood at 308 ± 4.07 µM.
With `C#CCOc1cccc(OCc2cn(-c3ccccc3C=O)nn2)c1` [Compound 4], the concentration for half-maximal inhibition (IC50) in data set [1] (setting [6]) was 15.7 ± 5.42 µM; in data set [1] (setting [7]) it was ~15 µM; in data set [3] (setting [9]), 150 ± 6.37 µM. In data set [3], the “increase in IC50 value against intracellular amastigote compared to promastigote forms” value turned out to be 9.5 fold. The “number of amastigotes per 200 cells” value in data set [3] (37.5 μM, 24 h) is given as “statistically decreased”. In data set [3] (37.5 μM, 24 h), the “parameters of infection (amastigotes per 200 cells, percentage of infected cells, amastigotes per infected cell)” value is on record as “did not significantly alter the other parameters of infection”. In data set [3], the “SI (selectivity index)” value came to 0.96. Also, in data set [2] (setting [8]), the CC50 at 24 h turned out to be 145 ± 4.1 µM. For the same molecule, the “ultrastructural alterations” value in data set [4] is “swelling of the kinetoplast and a change in chromatin distribution”.
For the molecule `Cc1ccc(S(=O)(=O)N/N=C/c2ccccc2-n2cc(COc3ccccc3)nn2)cc1` [Compound 5], the IC50 in data set [1] (setting [6]) was 8.81 ± 3.93 µM; in data set [1] (setting [7]), < 10 µM; in data set [3] (setting [9]), 32.3 ± 2.26 µM. The “parameters of infection (amastigotes per 200 cells, percentage of infected cells, amastigotes per infected cell)” value in data set [3] (37.5 μM, 24 h) is on record as “reduced all the three parameters of infection”. Also, the “SI (selectivity index)” value in data set [3] is 1.79. The CC50 at 24 h in data set [2] (setting [8]) was found to be 58 ± 2.65 µM. In addition, the “ultrastructural alterations” value in data set [4] was “lipid corpuscles (white arrows) (Figure 6A), extension of the kinetoplast containing granular material”.
With `C(=N\Nc1ccccc1)/c1ccccc1-n1cc(COc2ccccc2)nn1` [Compound 6], the IC50 in data set [1] (setting [6]) was 14.6 ± 4.39 µM; in data set [1] (setting [7]) it was ~15 µM; in data set [3] (setting [9]), 17.8 ± 3.26 µM. In addition, in data set [3] (18.7 μM, 24 h), the “amastigotes per infected cell” value is on record as “still able to reduce”. Further, the “number of amastigotes per 200 cells” value in data set [3] (18.7 μM, 24 h) is “still able to reduce”; in data set [3] (37.5 μM, 24 h) it was “remarkable reduction”. The “parameters of infection (amastigotes per 200 cells, percentage of infected cells, amastigotes per infected cell)” value in data set [3] (37.5 μM, 24 h) is “altered all the three parameters of infection”. In addition, the “SI (selectivity index)” value in data set [3] was 30.81. In addition, the CC50 at 24 h in data set [2] (setting [8]) worked out at 547.9 ± 3.26 µM. Further, the “ultrastructural alterations” value in data set [4] is “lipid corpuscles (white arrows) (Figure 7A), large vacuoles containing electron-dense material”. In addition, the “nitrite level relative to untreated infected macrophages” value in data set [5] was determined as 2.3 fold.
Regarding `O=Cc1ccccc1-n1cc(-c2ccccc2)nn1` [Compound 7], the IC50 is 63 ± 5.88 µM in data set [1] (setting [6]) and > 50 µM in data set [1] (setting [7]). In data set [2] (setting [8]), the CC50 at 24 h worked out at 412 ± 4.92 µM.
With `OCc1ccccc1-n1cc(COc2ccccc2)nn1` [Compound 8], the “IC50 Promastigote” value in data set [1] (setting [6]) was “did not exhibit any such activity even at the maximum analyzed concentration”. Moreover, the IC50 in data set [1] (setting [7]) is > 300 µM. Moreover, in data set [2] (setting [8]), the half-maximal cytotoxic concentration (CC50) at 24 h was > 600 µM.
On the same counts, the results for `O=c1ccc2cc(-n3cc(COc4ccccc4)nn3)ccc2o1` [Compound 10] are “did not exhibit any such activity even at the maximum analyzed concentration”, > 300 µM and > 600 µM.
For `CCCCCCCCCCCCCCCCOP(=O)([O-])OCC[N+](C)(C)C` [Miltefosine, miltefosine, reference compound], the IC50 came out at 8.56 ± 0.695 µM in data set [1] (Leishmania amazonensis, 24 h) and 11.6 ± 1.79 µM in data set [3] (24 h). Besides, the “parameters of infection (amastigotes per 200 cells, percentage of infected cells, amastigotes per infected cell)” value in data set [3] (25 and 12.5 μM, 24 h) is “reduction of all three parameters of infection”. This molecule returned a CC50 at 24 h in data set [2] (BALB/c) of 153 ± 3.85 µM.
